Results from patent US20250146074A1 (The General Hospital Corporation, priority 2023, published 2025).
Each block holds one molecule with its values, some of them ahead of it.

Key:
[1] = tested on: Firmicutes CAG:176 thiolase (FcTHL); assay: Kinetic assay of 5-ASA acetylation; type: biochemical, Firmicutes bacterium CAG:176; details: 5-ASA varied, 1 mM acetyl-CoA, 5 μM enzyme, 37° C.
Procedure: The samples were injected into an Infinity Lab Poroshell120 Hilic column (2.1×100 mm 2.7 μm) at 25° C. […] This was followed by a 3 second gradient to 40% mobile phase B. This was then followed by a 27 second gradient returning to 5% mobile phase A at a flow rate of 1200 μL/min. This flow rate and ratio was held for an additional 48 seconds. Additional column equilibration was carried out on a secondary pump for 117 seconds at 5% mobile phase A and a flow rate of 1000 μL/min. MS was conducted in negative ion mode using electrospray ionization. […] Other MS settings were as follows: heater temp 300° C., ESI nebulizer 45 psi, spray voltage 3.5 kV, acquisition time 100 ms/spectrum. […] For absolute quantification, all samples were normalized to the taurine internal standard and concentrations calculated against a standard curve.

[2] = human, in vivo; cited from earlier work
[3] = tested on: F. prausnitzii acyl-CoA N-acetyltransferase (FpGNAT, UniRef90 ID C7H1G6); assay: In vitro mass spectrometry end-point assay for 5-ASA acetylation; type: biochemical, Faecalibacterium prausnitzii; details: 6 hr at 37° C., 1 mM of each substrate, 50 μM enzyme
From the text: (§1) Having identified thiolase and acyl-CoA N-acetyltransferase superfamilies with potential 5-ASA-inactivating capabilities, we sought to biochemically confirm these predicted activities in vitro. […] We expressed the known NAT from Salmonella enterica, the candidate thiolase from Firmicutes CAG:176 (UniRef90 ID R6CZ24), and the acyl-CoA N-acetyltransferase from F. prausnitzii (UniRef90 ID C7H1G6) for further biochemical characterization (FIG. 14a). […] The known S. enterica enzyme served as a positive control (FIG. 14b).
(§2) Identities of the constructs were confirmed with DNA sequencing and then were transformed into E. coli BL21 strains for expression according to the standardized protocols from GenScript. All E. coli expression constructs were grown anaerobically in sealed Hungate tubes in Terrific Broth (VWR) supplemented with 5 mM MgSO4 and kanamycin (50 μg/mL) and were incubated at 37° C. overnight before dilution at 1:100 into fresh media the following morning. […]
(§3) The samples were injected into an Infinity Lab Poroshell120 Hilic column (2.1×100 mm 2.7 μm) at 25° C. […] For absolute quantification, all samples were normalized to the taurine internal standard and concentrations calculated against a standard curve.

[4] = tested on: Firmicutes CAG:176 thiolase (FcTHL, UniRef90 ID R6CZ24); assay: as above; type: biochemical, Firmicutes bacterium CAG:176; details: 6 hr at 37° C., 1 mM of each substrate, 50 μM enzyme
From the text: as §1, §2, §3

[5] = in vivo; cited from earlier work
fecal metabolome = assay: Fecal metabolome pre- and post-5-ASA in new users (IBDMDB); type: in vivo, human; details: stool pre- vs post-5-ASA
Procedure: A portion of each selected stool sample (40-100 mg) and the entire volume of originating ethanol preservative were stored in 15-ml centrifuge tubes at −80° C. until all samples were collected. Samples were then thawed on ice and centrifuged (4° C., 5,000 g) for 5 min. Ethanol was evaporated using a gentle stream of nitrogen gas using a nitrogen evaporator (TurboVap LV; Biotage) and stored at −80° C. until all samples in the study had been dried. After a homogenization and vortexing process, the mixture was aliquoted and stored at −80° C. until LC-MS analyses.
A combination of four untargeted LC-MS methods were used to profile metabolites in the fecal homogenates, as previously published;^22 two methods that measure polar metabolites (a method that measures metabolites of intermediate polarity (for example, fatty acids and bile acids), and a lipid profiling method: 1) HILIC-pos (positive ion mode MS analyses of polar metabolites), 2) HILIC-neg (negative ion mode MS analysis of polar metabolites), 3) C18-neg (negative ion mode analysis of metabolites of intermediate polarity; for example, bile acids and free fatty acids), and 4) C8-pos. Lipids (polar and nonpolar). Additionally, pairs of pooled reference samples were inserted into the queue at intervals of approximately 20 samples for quality control and data standardization. […]
Raw LC-MS data were acquired to the data acquisition computer interfaced to each LC-MS system and then stored on a robust and redundant file storage system (Isilon Systems) accessed via the internal network at the Broad Institute. […] Identification of nontargeted metabolite LC-MS peaks was conducted by: i) matching measured retention times and masses to mixtures of reference metabolites analyzed in each batch; and ii) matching an internal database of >600 compounds that have been characterized using the Broad Institute methods. Temporal drift was monitored and normalized with the intensities of features measured in the pooled reference samples. […]

colonic epithelial cells = details: cited from earlier work
[6] = in vivo; cited from earlier work; remark: listed apart in the source
[7] = tested on: Firmicutes CAG:176 thiolase (FcTHL); assay: Promiscuity (substrate competition) assay of the thiolase with amine-containing xenobiotics; details: 1 mM substrate, 5 μM enzyme, room temperature 1 hour
Procedure: Enzyme concentrations were calculated according to Beer's Law with extinction coefficients calculated by Benchling software based on the amino acid sequences of the putative enzymes. […] Reactions were conducted at 37° C. for 6 hours for the initial endpoint assay and room temperature for 1 hour for the promiscuity assay. Quenching/extraction for the promiscuity assay was with equal volumes of acetonitrile and methanol. Quenching/extraction for the end-point was one part sample and nine-parts extraction mix (75% acetonitrile:25% methanol v/v with 10 μM 1,2-^13C2-taurine from Cambridge Isotopes as an internal standard for quantification). Samples were vortexed and cooled to −20° C. and then centrifuged prior to LC-MS analysis.
For the promiscuity assays, mass spectrometry analyses were conducted using an LC-MS system composed of an Agilent 1260 Infinity HPLC (Agilent Technologies) coupled to a 6530 Accurate-Mass QTOF LC-MS (Agilent Technologies). The samples were injected into a 150×3 mm Hypersil GOLD aQ column (Thermo Scientific) at 30° C. […] Remaining identities were inferred using calculated masses with a mass detection tolerance of 10 ppm. Raw data from the LC-MS were analyzed using Agilent MassHunter Qualitative Analysis 10.0 software.

SMILES: Nc1ccc(O)c(C(=O)O)c1 [5-ASA, 5-aminosalicylic acid]
Km ([1]; +/−0.46 mM): 1880 µM
kcat ([1]; +/−0.0199): 0.00108 s⁻¹
IBD patients who fail to respond or eventually lose response [2]: over half
conversion of 5-ASA to N-acetyl 5-ASA using acetyl-CoA [3]: > 25%
conversion of 5-ASA to N-acetyl 5-ASA using acetyl-CoA [4]: > 25%
intraluminal stool concentrations of 5-ASA (median) [5]: 30 mM
abundance of fecal 2-aminoadipate following 5-ASA treatment (fecal metabolome; 13 new users): reduced
abundance of fecal nicotinic acid (NA) with 5-ASA (fecal metabolome): dropped
abundance of fecal nicotinuric acid (NUA) with 5-ASA (fecal metabolome): dramatically increased

SMILES: CC(=O)Nc1ccc(O)c(C(=O)O)c1 [N-acetyl 5-ASA]
bioavailability to colonic epithelial cells (colonic epithelial cells): < 5%
anti-inflammatory activity in placebo-controlled trials [6]: lacks anti-inflammatory activity

acetylation of the compound by the thiolase [7]: did not observe any acetylation
SMILES: NNc1nncc2ccccc12 [hydralazine]

acetylation of the compound by the thiolase [7]: did not observe any acetylation
SMILES: CCN(CC)CCNC(=O)c1ccc(N)cc1 [procainamide]
